The values below come from publication PMC12196235, “Enhancing the Pharmacological Properties of Triterpenes Through Acetylation: An Anticancer and Antioxidant Perspective” (Molecules, 2025).

The structures appear in SMILES notation. Where two headings read alike, the source gives them in different places.

Data set [1] concerns SGC7901 (human gastric carcinoma). The settings on record: ref 48, cited from earlier work.
The subject of data set [2] is CCRF-CEM, CEM (human T lymphoblastic leukemia). The settings on record: cited from earlier work.
The test system of data set [3] is RPMI-8226 (human multiple myeloma). The settings on record: ref 47; read-out: anticancer IC50 (RPMI-8226); cited from earlier work.
Data set [4] deals with A-549 (human lung carcinoma). Particulars: ref 47; read-out: anticancer IC50 (A-549); cited from earlier work.
The subject of data set [5] is HeLa, KB, MCF-7, A-549, PC-3 and SKOV-3. Put plainly: MTT assay, summary over the cancer cell lines. The class given is cell-based, human. Particulars: classification by IC50 (good ≤ 10 μM, moderate 10–30 μM, ref 83). The method in brief: (§1)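 Cells cultured at 37 °C in serum-supplemented medium (10% FBS, 1% L-glutamine, 1% pen/strep): HeLa in DMEM, MCF-7 and A-549 in RPMI 1640, HDF in fibroblast basal medium. Compound effects were then assessed by MTT assay.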

Data set [6] concerns P-388 (murine lymphocytic leukemia). The settings on record: ref 49, cited from earlier work.
Data set [7] has as its system FTC-238 (human thyroid carcinoma). Particulars: ref 47; read-out: anticancer IC50 (FTC-238); cited from earlier work.
Data set [8] has as its system HDF (human dermal fibroblasts). Briefly: MTT assay, normal HDF. The settings on record: Homo sapiens, Fibroblast, read-out: IC50 (±SD), HDF. It counts as cell-based. The method in brief:
as §1
(Tetrazolium dyes change colour on reduction, which living cells bring about.)

Data set [9] concerns MCF-7 (human breast carcinoma). Briefly: MTT assay, MCF-7. The class given is cell-based. The procedure, abridged:
as §1

The test system of data set [10] is HPOC (human ovarian carcinoma). The settings on record: ref 47; read-out: anticancer IC50 (HPOC); cited from earlier work.
The test system of a further data set is C-6. The settings on record: ref 47; read-out: anticancer IC50 (C-6); cited from earlier work.
In data set [11] the test system is Jurkat 1E.6 (human T cell leukemia). Particulars: ref 47; read-out: anticancer IC50 (Jurkat 1E.6); cited from earlier work.
For data set [12], the system named is HT-29 (human colorectal adenocarcinoma). The settings on record: ref 47; read-out: anticancer IC50 (HT-29); cited from earlier work.
In data set [13] the test system is HeLa (human cervical epithelioid carcinoma). Briefly: MTT assay, HeLa. It counts as cell-based. The method in brief: as §1

For `C=C(C)[C@@H]1CC[C@]2(CO)CC[C@]3(C)[C@H](CC[C@@H]4[C@@]5(C)CC[C@H](O)C(C)(C)[C@@H]5CC[C@]43C)[C@@H]12` [5a, betulin], the “anticancer IC50 (SGC7901)” value in [1] was 13 µg/mL. Besides, the IC50 was 29.4 µM in [1] (read-out: anticancer IC50 (SGC7901)); 250 µM in data set [2] (ref 26, read-out: anticancer IC50 (CCRF-CEM, CEM)); 24.6 µM in data set [2] (ref 49, read-out: anticancer IC50 (CCRF/CEM)); 6.4 µM in data set [3]; 7.4 µM in data set [4]; 12.4 µM in data set [6] (read-out: anticancer IC50 (P-388)). Further, the IC50 in data set [7] is 6.8 µM; in data set [8], 15.8 µM; in [9] (Homo sapiens, MCF7, MTT assay, MCF-7, read-out: IC50 (±SD), MCF-7), 18.1 µM; in data set [10], 2.8 µM; in the data set with C-6, 5.9 µM; in data set [11], 6.7 µM. In addition, the IC50 is 4.3 µM in [12] and 18.3 µM in data set [13] (Homo sapiens, MTT assay, HeLa, read-out: IC50 (±SD), HeLa). Besides, the “anticancer IC50 (CCRF/CEM)” value in data set [2] (ref 49) is listed as 10.9 µg/mL. For the same compound, the “cytotoxic activity class” value in data set [5] was “high or moderately high activity”. Further, the “anticancer IC50 (P-388)” value in data set [6] is recorded as 5.5 µg/mL. For the same compound, in data set [9] (IC50 HDF / IC50 MCF-7), the “Selectivity index (SI), MCF-7” value is listed as 0.87. In data set [13] (IC50 HDF / IC50 HeLa), the “Selectivity index (SI), HeLa” value turned out to be 0.86.
